Tests used:
Assay type in all cases: cell-based
[1] = system: Recombinant Respiratory Syncytial virus strain A2 containing the firefly luciferase reporter (RSV-Fluc) in NHBE cells; assay: RSV NHBE FLuc EC50 (Example I); details: human respiratory syncytial virus, 72 h, read-out: RSV NHBE FLuc EC50 (nM) (per Ex. I)
Excerpt: Normal human bronchial epithelial (NHBE) cells are purchased from Lonza (Walkersville, MD Cat #CC-2540) and maintained in Bronchial Epithelial Cell Growth Medium (BEGM) (Lonza, Walkersville, MD, Cat #CC-3170) with all provided supplements in the BulletKit. Cells are passaged 2-3 times per week to maintain sub-confluent densities and are used for experiments at passages 2-4.
Recombinant Respiratory Syncytial virus strain A2 containing the firefly luciferase reporter between the P and M genes (RSV-Fluc, 6.3×10^6 TCID50/mL) is purchased from Viratree (Durham, NC, Cat #R^145).
NHBE cells (5×10^3/well) are seeded in 100 μL white wall/clear bottom 96-well plates (Corning) with culture medium and are incubated for 24 hours at 37° C. with 5% CO2. On the following day, three-fold serial dilutions of compounds prepared in DMSO are added to the wells using the HP D300e digital dispenser with normalization to the highest concentration of DMSO in all wells. The cells are then infected with RSV-Fluc diluted with BEGM media at an MOI of 0.1 for a final volume of 200 μL media/well. Uninfected and untreated wells are included as controls to determine compound efficacy against RSV-Fluc. Following incubation with compound and virus for three days at 37° C. with 5% CO2, 100 μL of culture supernatant is removed from each well and replaced with 100 μL of ONE-Glo luciferase reagent (Promega, Madison, WI, Cat #E6110). The plates are gently mixed by rocking for 10 minutes at 21° C. and luminescence signal is measured using an Envision plate reader (PerkinElmer). Values are normalized to the uninfected and infected DMSO controls (0% and 100% infection, respectively). Non-linear regression analysis is applied to determine the compound concentration at which 50% luminescence signal is reduced (EC50) using the XLfit4 add-in for MICROSOFT®EXCEL®. All experiments are performed in duplicate with two technical repeats each.

[2] = system: Respiratory syncytial virus recombinant with luciferase (RSV-Luc5) in HEp-2 cells; assay: HEp-2 RSV-Luc5 384-well assay (EC50 RSVFLUC Hep2-384, Example R); details: human respiratory syncytial virus, HEp-2, 72 h, read-out: RSV Hep-2 FLuc EC50 (nM) (per Ex. R)
Excerpt: (§1) HEp-2 cell line was purchased from ATCC (Manassas, VA Cat #CCL-23) and maintained in Dulbecco's […] (DMEM) (Corning, New York, NY, Cat #15-018CM) supplemented with 10% fetal bovine serum (FBS) (Hyclone, Logan, UT, Cat #SH30071-03) and 1× Penicillin-Streptornycin-L-Glutamine (Corning, New York, NY, Cat #30-009-CI). Cells were passaged 2 times per week to maintain sub-confluent densities and were used for experiments at passage 5-20. Respiratory syncytial virus recombinant with luciferase (RSV-Luc5) direct pelleted virus (≥1×107 TCID50/ml) was purchased from Microbiologics (Saint Cloud, MN). Viral replication was determined in HEp-2 cells in the following manner.
Compounds are prepared in 384-well polypropylene plates (Greiner, Monroe, NC, Cat #784201) with 8 compounds per plate in grouped replicates of 4 at 10 serially diluted concentrations (1:3).
HEp-2 cells were suspended in DMEM (supplemented with 10% FBS and 1×Penicillin-Streptonycin-L-Glutimine) and 60 μL of 4,000 cells per well were seeded into 384-well plates (Greiner, Monroe, NC, Cat #781080) using Biotek MultiFlo dispenser. After overnight incubation at 37° C. and 5% CO2, 0.4 uL of three-fold serial dilutions of compound was added to each well using a Biomek FX pipette station. RSV-Luc5 viruses were diluted in DMEM (supplemented with 10% FBS and 1× Penicillin-Streptonycin-L-Glutainie) at an MOI=0.5. Virus suspension was added to each 384-well compound plate at 20 uL per well using a Biotek MultiFlo dispenser. The assay plates were incubated for 3 days at 37° C. and 5% CO2. At the end of incubation, One-Glo reagent (Promega, Madison, WI, Cat #E6120) was prepared. The assay plate and the reagent were equilibrated to room temperature for 30 minutes. 50 uL per well of medium was removed from assay plate and 40 uL per well of One-Glo reagent was added to each plate by Biomek FX. The plates were sat at room temp for 15 minutes. Viral replication was then assessed by measuring luminescence signal using and Envision plate reader. Remdesivir was used as positive control and DMSO was used as negative control. Values were normalized to the positive and negative controls (as 0% and 100% replication, respectively) and data was fitted using non-linear regression analysis by Gilead's dose response tool. The EC50 value for each compound was then determined as the concentration reducing the viral replication by 50%.

[3] = system: Respiratory syncytial virus recombinant with luciferase (RSV-Luc5) in HEp-2 cells; assay: HEp-2 RSV-Luc5 384-well assay (EC50 RSVFLUC Hep2-384 v2, Example V); details: human respiratory syncytial virus, HEp-2, 72 h, read-out: RSV Hep-2 FLuc EC50 (v2) (nM) (per Ex. V)
Excerpt: as §1, with “Penicillin-Streptonycin-L-Glutamine” for “Penicillin-Streptornycin-L-Glutamine”, “(RSV-Luc5)” for “(RSV-Luc5) direct pelleted virus”
Compounds are prepared in 100% DMSO in 384-well polypropylene plates (Greiner, Monroe, NC, Cat #784201) with 8 compounds per plate in grouped replicates of 4 at 10 serially diluted concentrations (1:3). The serially diluted compounds were transferred to low dead volume Echo plates (Labcyte, Sunnyvale, CA, Cat #LP-0200).
The test compounds were spotted to 384-well assay plates (Greiner, Monroe, NC, Cat #781091) at 200 nL per well. HEp-2 cells were harvested and suspended in DMEM (supplemented with 10% FBS and 1× Penicillin-Streptomycin-L-Glutamine) and seeded to the pre-spotted assay plates at 4,000 cells per well in 30 μL. RSV-Luc5 viruses were diluted in DMEM (supplemented with 10% FBS and 1× Penicillin-Streptomycin-L-Glucamine) at 200,000 Infectious Units (IU) per mL and 10 μL per well was added to the assay plates containing cells and compounds, for an MOI=0.5. The assay plates were incubated for 3 days at 37° C. and 5% CO2. At the end of incubation, One-Glo reagent (Promega, Madison, WI, Cat #E6120) was prepared. The assay plates and One-Glo reagent were equilibrated to room temperature for at least 15 minutes. 40 μL per well of One-Glo reagent was added and the plates were incubated at room temp for 15 minutes before reading the luminescence signal on an EnVision multimode plate reader (Perkin Elmer, Waltham, MA). Remdesivir was used as positive control and DMSO was used as negative control. Values were normalized to the positive and negative controls (as 0% and 100% replication, respectively) and data was fitted using non-linear regression analysis by Gilead's dose response tool. The EC50 value for each compound was then determined as the concentration reducing the viral replication by 50%.

[4] = RSV HEP2-CC50-384-V2 (per Ex. V); details: human
[5] = system: dengue virus type 2 in Huh7 hepatoblastoma cells; assay: Dengue Virus-2 Huh-7 EC50 (Example W); details: MOI of 0.07, CPE, neutral red dye, read-out: Dengue Virus-2 Huh-7 EC50 (nM) (per Ex. W)
Protocol: (§2) Huh7 hepatoblastoma cells were seeded onto 96-well plates and incubated at 37° C. with 5% CO2 overnight. The plates were seeded at a cell concentration that will yield >70% confluent monolayers in each well after overnight incubation. Eight 3-fold serial dilutions of compounds were diluted in test media (MEM supplemented with 2% FBS and 50 μg/mL gentamicin). The highest test compound concentration was 50 μg/mL. 100 μL of each concentration was added to 5 test wells on the 96-well plate. Of these 5 test wells, 3 wells of each dilution were infected with dengue virus type 2, diluted in test media (approximately 2000 CCID50 per well for an MOI of 0.07). Test medium (100 μL) with no virus was added to 2 wells to represent the uninfected cytotoxicity controls. Six additional infected wells received 100 μL media alone as untreated virus controls. Further, 100 μL of media alone was added to 6 uninfected wells to serve as uninfected, untreated controls. Cultures were incubated at 37° C.+5% CO2 until >80% CPE is observed. After cytopathic effect (CPE) is observed microscopically, 0.011% neutral red dye was added for approximately 2 hours. The neutral red dye was removed and wells were rinsed once with PBS to remove residual, unincorporated dye. A 50:50 Sorensen citrate buffer/ethanol solution was added and incubated at room temperature for >30 minutes with agitation, followed by measurement of neutral red dye using a spectrophotometer at 540 nm. The resulting optical density measurement was converted to percent signal of the infected, untreated cell control normalizing to virus controls. EC50 and CC50 values were determined by linear regression analysis.

in vitro = details: human
Protocol: as §2

CCCCCCCCCCCCCCOC[C@H](COP(=O)(O)OC[C@@]1(C#N)O[C@@H](c2ccc3c(N)ncnn23)[C@H](O)[C@@H]1O)Oc1ccc(C#N)nc1 [Compound 77, ((2R,3S,4R)-5-(4-aminopyrrolo[2,1-f][1,2,4]triazin-7-yl)-2-cyano-3,4-dihydroxytetrahydrofuran-2-yl)methyl ((R)-2-((6-cyanopyridin-3-yl)oxy)-3-(tetradecyloxy)propyl) hydrogen phosphate]
EC50 [1]: 12 nM
EC50 [2]: 222 nM
EC50 [3]: 90 nM
CC50 at 3 days [4]: > 50 µM

CCCCCCCCCCCCCCCCCCOC[C@@H](COP(=O)(O)OC[C@@]1(C#N)O[C@@H](c2ccc3c(N)ncnn23)[C@H](O)[C@@H]1O)OCc1ccc(C#N)cc1OC [Compound 67, ((2R,3S,4R)-5-(4-aminopyrrolo[2,1-f][1,2,4]triazin-7-yl)-2-cyano-3,4-dihydroxytetrahydrofuran-2-yl)methyl ((S)-2-((4-cyano-2-methoxybenzyl)oxy)-3-(octadecyloxy)propyl) hydrogen phosphate]
EC50 [1]: 28 nM
EC50 [2]: 229 nM

CCCCCCCCCCCCCCCCCCC[C@H](COP(=O)(O)OC[C@@]1(C#N)O[C@@H](c2ccc3c(N)ncnn23)[C@H](O)[C@@H]1O)OCc1ccc(C#N)c(OC)c1 [Compound 27, ((2R,3S,4R)-5-(4-aminopyrrolo[2,1-f][1,2,4]triazin-7-yl)-2-cyano-3,4-dihydroxytetrahydrofuran-2-yl)methyl ((R)-2-((4-cyano-3-methoxybenzyl)oxy)henicosyl) hydrogen phosphate]
EC50 [1]: 42 nM
EC50 [2]: 232 nM

CCCCCCCCCCCCCCCCCCOC[C@H](COP(=O)(O)OC[C@@]1(C#N)O[C@@H](c2ccc3c(N)ncnn23)[C@H](O)[C@@H]1O)OCc1ccc(OC)c(C#N)c1 [Compound 9, ((2R,3S,4R,5S)-5-(4-aminopyrrolo[2,1-f][1,2,4]triazin-7-yl)-2-cyano-3,4-dihydroxytetrahydrofuran-2-yl)methyl ((R)-2-((3-cyano-4-methoxybenzyl)oxy)-3-(octadecyloxy)propyl) hydrogen phosphate]
EC50 [2]: 53 nM
EC50 [3]: 145 nM
CC50 at 3 days [4]: > 48.5 µM

CCCCCCCCCCCCCCOC[C@H](COP(=O)(O)OC[C@@]1(C#N)O[C@@H](c2ccc3c(N)ncnn23)[C@H](O)[C@@H]1O)Oc1ccc(C#N)cn1 [Compound 71]
EC50 [1]: 199 nM
EC50 [3]: 2580 nM
EC50 [5]: 33000 nM
CC50 (in vitro): > 50 µM
CC50 at 3 days [4]: > 50 µM

CCCCCCCCCCCCCCCCCCOC[C@H](COP(=O)(O)OC[C@@]1(C#N)O[C@@H](c2ccc3c(N)ncnn23)[C@H](O)[C@@H]1O)OCc1cncc(C#N)c1 [Compound 66, ((2R,3S,4R)-5-(4-aminopyrrolo[2,1-f][1,2,4]triazin-7-yl)-2-cyano-3,4-dihydroxytetrahydrofuran-2-yl)methyl ((R)-2-((5-cyanopyridin-3-yl)methoxy)-3-(octadecyloxy)propyl) hydrogen phosphate]
EC50 [1]: 50 nM
EC50 [2]: 21 nM
EC50 [3]: 56 nM
CC50 at 3 days [4]: 49.1 µM

CCCCCCCCCCCCCCCCCCOC[C@H](COP(=O)(O)OC[C@@]1(C#N)O[C@@H](c2ccc3c(N)ncnn23)[C@H](O)[C@@H]1O)Oc1cccc(C#N)c1 [Compound 50, ((2R,3S,4R,5S)-5-(4-aminopyrrolo[2,1-f][1,2,4]triazin-7-yl)-2-cyano-3,4-dihydroxytetrahydrofuran-2-yl)methyl ((R)-2-(3-cyanophenoxy)-3-(octadecyloxy)propyl) hydrogen phosphate]
EC50 [1]: 18 nM
EC50 [2]: 12 nM
EC50 [3]: 91 nM
CC50 at 3 days [4]: > 50 µM

Source: US20250034182A1, “PHOSPHOLIPID COMPOUNDS AND METHODS OF MAKING AND USING THE SAME” (priority 2021, published 2025)
